Measurements: patent publication EP3815699A1, “NEW MEANS AND METHODS FOR THERAPY AND DIAGNOSIS OF […]” (Technische Universität München, priority 2019, dated 2021)
Entries after “also recorded” stand apart in the source; their conditions may differ. Where two headings read alike, the source gives them in different places.

How the values were obtained:
HAdV-C5 wt [1] = assay: Tecan plate reader measurement of E2A and capsid immunofluorescence intensity in infected H1299 cells (Fig. 2A); format: cell-based; conditions: for IC50: Fig. 2A
Procedure: (§1) • Figure 1: ATO efficiently reduces HAdV infectivity (cf. Example 1). H1299 cells were infected with HAdV-C5 wt at a multiplicity of 5 FFU/cell, treated with the depicted concentrations of ATO at 2 h.p.i., fixed 48 h.p.i. with 4 % PFA and double labeled with mAb B6-8 (α-E2A) and pAb L133 (α-Capsid). Primary antibodies were detected using Alexa488 (E2A, green) and Alexa568 (Capsid, red) conjugated secondary antibodies. (A) The number of E2A and Capsid expressing cells, respectively, was counted in n=40 overview pictures (not shown), normalized to untreated, infected cells, and represented in bar charts. Bar charts represent average values and standard deviations based on four independent experiments. (B) H1299 cells were infected with HAdV-C5 at a multiplicity of 20 FFU/cell, and treated with the depicted concentrations of ATO at 2 h.p.i.. Viral particles were harvested 48 h.p.i. and virus yield was determined by quantitative E2A immunofluorescence staining in 293 cells. Bar charts represent average values and standard deviations based on three independent experiments. Statistically significant differences were determined using a two-sided Welch's t-test. *: P ≤ 0.05, **: P ≤ 0.01, ***: P ≤ 0.001, ****: P ≤ 0.0001. • Figure 2: ATO induces a dose dependent reduction of HAdV infectivity with minor effects on cell viability (cf. Example 2). (A) H1299 cells were infected with HAdV-C5 wt at a multiplicity of 20 FFU/cell and treated with the depicted concentrations of ATO at 2 h.p.i.. 24 or 48 h.p.i., cell viability was assessed using the Promega CellTiter-Blue Cell Viability Assay system, prior to fixation with 4 % PFA and cells were double labeled with mAb B6-8 (α-E2A) and pAb L133 (α-Capsid). Primary antibodies were detected using Alexa488 (E2A, green) and Alexa647 (Capsid, red) conjugated secondary antibodies. Fluorescence intensity was measured using a Tecan Infinite 200M plate reader using an excitation and emission wavelength of 488 and 520nm for Alexa488 and 640 and 670nm for Alexa647 respectively. Fluorescence intensity was normalized to untreated, infected cells at 48h p.i.. xy charts represent average values and standard deviations based on three independent experiments measured in triplicates. (B) H1299 cells were infected with an HAdV-C5 delta E3 virus, encoding a CMV promoter driven eGFP expression cassette, at a multiplicity of 20FFU/cell and treated with the depicted concentrations of ATO at 2h p.i.; 24 or 48 h p.i. cell viability was assessed using the Promega CellTiter-Blue Cell Viability Assay system, and GFP fluorescence intensity was measured using a Tecan Infinite 200M plate reader using an excitation and emission wavelength of 488 and 520nm. Fluorescence intensity was normalized to untreated, infected cells at 48h p.i.; xy charts represent average values and standard deviations based on three independent experiments measured in triplicates. (C) H1299 cells were infected with an eGFP expressing HAdV-C5 based first generation adenoviral vector at a multiplicity of 20 FFU/cell and treated with the depicted concentrations of ATO at 2h p.i.; 24 or 48h p.i., cell viability was assessed using the Promega CellTiter-Blue Cell Viability Assay system, and GFP fluorescence intensity was measured using a Tecan Infinite 200M plate reader using an excitation and emission wavelength of 488 and 520nm. Fluorescence intensity was normalized to untreated, infected cells at 48h p..i.; xy charts represent average values and standard deviations based on three independent experiments measured in triplicates. (D) A549 cells were infected with an HAdV-C5 delta E3 virus, encoding a CMV promoter driven eGFP expression cassette, at a multiplicity of 20FFU/cell and treated with the depicted concentrations of ATO at 2h p.i.. GFP-fluorescence, as well as cell growth via phase contrast-imaging was assessed for 48 h with a 2h increment using an IncuCyte S3 Live-Cell Analysis System. […]

HAdV-C5 wt [2] = assay: Immunofluorescence count of E2A and capsid expressing infected cells (Fig. 1A); format: cell-based
Procedure: as §1, with “(A) H1299 cells were infected with HAdV-C5 wt at a multiplicity of 20 FFU/cell and treated with the depicted concentrations of ATO at 2 h.p.i..” left out, “triplicates.” for “triplicates. (C) H1299 cells were infected with an eGFP expressing HAdV-C5 based first generation adenoviral vector at a multiplicity of 20 FFU/cell and treated with the depicted concentrations of ATO at 2h p.i.; 24 or 48h p.i., cell viability was assessed using the Promega CellTiter-Blue Cell Viability Assay system, and GFP fluorescence intensity was measured using a Tecan Infinite 200M plate reader using an excitation and emission wavelength of 488 and 520nm. Fluorescence intensity was normalized to untreated, infected cells at 48h p..i.; xy charts represent average values and standard deviations based on three independent experiments measured in triplicates. (D) A549 cells were infected with an HAdV-C5 delta E3 virus, encoding a CMV promoter driven eGFP expression cassette, at a multiplicity of 20FFU/cell and treated with the depicted concentrations of ATO at 2h p.i.. GFP-fluorescence, as well as cell growth via phase contrast-imaging was assessed for 48 h with a 2h increment using an IncuCyte S3 Live-Cell Analysis System.”

HAdV-C5 wt [3] = assay: Native agarose gel electrophoresis capsid formation assay (Fig. 3D); format: cell-based
PML-NBs = assay: Immunofluorescence count of PML-NBs per cell in uninfected H1299 cells (Fig. 4A); format: cell-based, Human; conditions: non-infected cells
HAdV-C5 wt [4] = assay: Immunofluorescence count of HAdV replication centers marked by E2A (Fig. 4B); format: cell-based; conditions: HAdV infected cells
[5] = tested on: eGFP expressing HAdV-C5 based first generation adenoviral vector; assay: GFP fluorescence of non-replicating adenoviral vector in H1299 cells (Fig. 2C); format: cell-based; conditions: for GFP expression compared to the untreated control: 8µM ATO; for IC50: read-out: IC50 (GFP expression)
Procedure: as §1, with “(A) H1299 cells were infected with HAdV-C5 wt at a multiplicity of 20 FFU/cell and treated with the depicted concentrations of ATO at 2 h.p.i..” left out, “triplicates.” for “triplicates. (C) H1299 cells were infected with an eGFP expressing HAdV-C5 based first generation adenoviral vector at a multiplicity of 20 FFU/cell and treated with the depicted concentrations of ATO at 2h p.i.; 24 or 48h p.i., cell viability was assessed using the Promega CellTiter-Blue Cell Viability Assay system, and GFP fluorescence intensity was measured using a Tecan Infinite 200M plate reader using an excitation and emission wavelength of 488 and 520nm. Fluorescence intensity was normalized to untreated, infected cells at 48h p..i.; xy charts represent average values and standard deviations based on three independent experiments measured in triplicates. (D) A549 cells were infected with an HAdV-C5 delta E3 virus, encoding a CMV promoter driven eGFP expression cassette, at a multiplicity of 20FFU/cell and treated with the depicted concentrations of ATO at 2h p.i.. GFP-fluorescence, as well as cell growth via phase contrast-imaging was assessed for 48 h with a 2h increment using an IncuCyte S3 Live-Cell Analysis System.”

[6] = tested on: HAdV-C5 delta E3 virus, encoding a CMV promoter driven eGFP expression cassette; assay: IncuCyte live-cell imaging, real-time kinetics of GFP expression (Fig. 2D); format: cell-based; conditions: 60h p.i., A549 cells
HAdV-C5 = assay: Virus yield / progeny production by quantitative E2A immunofluorescence staining in 293 cells (Fig. 1B); format: cell-based
Procedure: • Figure 1: ATO efficiently reduces HAdV infectivity (cf. Example 1). H1299 cells were infected with HAdV-C5 wt at a multiplicity of 5 FFU/cell, treated with the depicted concentrations of ATO at 2 h.p.i., fixed 48 h.p.i. with 4 % PFA and double labeled with mAb B6-8 (α-E2A) and pAb L133 (α-Capsid). Primary antibodies were detected using Alexa488 (E2A, green) and Alexa568 (Capsid, red) conjugated secondary antibodies. (A) The number of E2A and Capsid expressing cells, respectively, was counted in n=40 overview pictures (not shown), normalized to untreated, infected cells, and represented in bar charts. Bar charts represent average values and standard deviations based on four independent experiments. (B) H1299 cells were infected with HAdV-C5 at a multiplicity of 20 FFU/cell, and treated with the depicted concentrations of ATO at 2 h.p.i.. Viral particles were harvested 48 h.p.i. and virus yield was determined by quantitative E2A immunofluorescence staining in 293 cells. Bar charts represent average values and standard deviations based on three independent experiments. Statistically significant differences were determined using a two-sided Welch's t-test. *: P ≤ 0.05, **: P ≤ 0.01, ***: P ≤ 0.001, ****: P ≤ 0.0001. • Figure 2: ATO induces a dose dependent reduction of HAdV infectivity with minor effects on cell viability (cf. Example 2). […] 24 or 48 h.p.i., cell viability was assessed using the Promega CellTiter-Blue Cell Viability Assay system, prior to fixation with 4 % PFA and cells were double labeled with mAb B6-8 (α-E2A) and pAb L133 (α-Capsid). Primary antibodies were detected using Alexa488 (E2A, green) and Alexa647 (Capsid, red) conjugated secondary antibodies. Fluorescence intensity was measured using a Tecan Infinite 200M plate reader using an excitation and emission wavelength of 488 and 520nm for Alexa488 and 640 and 670nm for Alexa647 respectively. Fluorescence intensity was normalized to untreated, infected cells at 48h p.i.. xy charts represent average values and standard deviations based on three independent experiments measured in triplicates. […]

[7] = ATO concentration not stated at the place

PML-NBs, sequence (P29590 1-418 limits assumed): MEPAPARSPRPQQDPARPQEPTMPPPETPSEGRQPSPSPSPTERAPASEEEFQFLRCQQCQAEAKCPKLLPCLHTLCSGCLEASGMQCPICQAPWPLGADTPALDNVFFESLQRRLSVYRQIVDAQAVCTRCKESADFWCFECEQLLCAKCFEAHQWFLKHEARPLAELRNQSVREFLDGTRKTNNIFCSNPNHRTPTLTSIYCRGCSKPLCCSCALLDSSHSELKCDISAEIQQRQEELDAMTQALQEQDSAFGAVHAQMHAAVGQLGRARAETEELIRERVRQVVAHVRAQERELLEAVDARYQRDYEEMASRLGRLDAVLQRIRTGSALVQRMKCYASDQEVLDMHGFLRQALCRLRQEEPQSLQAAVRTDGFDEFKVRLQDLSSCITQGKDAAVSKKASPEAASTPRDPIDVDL

With arsenic trioxide [ATO] the E2A expression (HAdV-C5 wt [1]; 8µM ATO, 48h p.i.) was “not detectable; also recorded: completely blocking”, the “reduction of E2A protein expression” value (HAdV-C5 wt [1]; 8µM ATO, 48h p.i.) was “up to 60%” and the IC50 (HAdV-C5 wt [1]; 24h p.i., read-out: IC50 (E2A expression)) was 1910 nM. The IC50 (HAdV-C5 wt [1]; 48h p.i., read-out: IC50 (E2A expression)) was 4060 nM, the IC50 (HAdV-C5 wt [1]; 48h p.i., read-out: IC50 (capsid expression)) was 2070 nM and the “reduction of early viral DNA binding protein E2A expression” value (HAdV-C5 wt [2]; 1µM ATO, H1299, 5 FFU/cell, ATO at 2 h.p.i., 48 h.p.i.) was 40%. For the same substance, the “inhibition of late capsid protein expression” value (HAdV-C5 wt [2]; 2.0µM ATO, H1299, 5 FFU/cell, ATO at 2 h.p.i., 48 h.p.i.) was about 80%, the “reduction in cells expressing E2A” value (HAdV-C5 wt [2]; [7]) was “up to 40%” and the “reduction in cells expressing capsid” value (HAdV-C5 wt [2]; [7]) was “up to 80%”. For the same substance, the “signal obtained after capsid staining (native gel assay)” value (HAdV-C5 wt [3]) was “significantly reduced”, the capsid protein expression (HAdV-C5 wt [3]; denatured input lysates, right panel) was “reduced” and the “number of PML-NBs” value (PML-NBs) was “significantly decreases”. For the same substance, the “RC in number (replication centers)” value (HAdV-C5 wt [4]) was “significant reduction”, the “GFP expression compared to the untreated control” value ([5]; 24h p.i.) was “Less than 50%” and the “GFP expression compared to the untreated control” value ([5]; 48h p.i.) was “Less than 50%”. The IC50 ([5]; 24h p.i.) was 6.49 µM, the IC50 ([5]; 48h p.i.) was 10.2 µM and the “reduction of GFP expression / viral load over time” value [6] was “four-fold”. The “reduction of virus yield” value (HAdV-C5; 1µM ATO, H1299, 20 FFU/cell, harvested 48 h.p.i.) was 80%, the “virus particle synthesis / virus yield” value (HAdV-C5; 2µM ATO, compared to non-treated infected control cells) was “abolished; also recorded: completely abolishing” and the “reduction in virus yield” value (HAdV-C5; ATO concentration not given) was 80%.
